Data published in patent US20250281465A1, “MOLECULES THAT ENHANCE EXTRACELLULAR VESICLE RELEASE” (priority 2022, published 2025).

How the values were obtained:
[1] = system: CD63-Tluc-CD9-EmGFP THP-1 reporter cells; assay: CD63 Tluc-CD9 EmGFP THP-1 reporter cell assay (EV/exosome release); format: cell-based, human; conditions: 48 hours incubation
Procedure: All these analogs were evaluated for induction of IL-12 cytokine at 10 μM, followed by dose response IL-12 induction for selected analogs. These analogs were also evaluated for exosome release by quantitating EV release in the supernatant post 48 hours incubation with CD63-Tluc-CD9-EmGFP THP-1 reporter cells.
In the HTS using CD63-Tluc-CD9EmGFP reporter cells (CD63 HTS), PMA (10 ng/ml) was used as a positive control (Shpigelman et al., 2021) and 0.5% DMSO was used as negative control (vehicle, Veh). Briefly, the harvested cells were resuspended in assay media containing 10% exosome-depleted […] (#A2720801, Thermo Fisher Scientific) and plated at 2×10^5 cells/mL (50 μL/well of 384-well plates) (#3674, Corning). Test compounds were added at a final concentration of 10 μM to cells and incubated for 48 hours at 37° C. Subsequently, the plate was centrifuged, supernatant (25 μL) was transferred, and chemiluminescent was measured as recombinant luciferase activity (RLU) after 10 minutes incubation with TurboLuc assay reagent (TurboLuc™ One-Step Glow Assay kit, Thermo Fisher Scientific). The response that measures activation and subsequent release of EVs was calculated using the following formula; % response=100×(compound RLU−average Veh RLU)/(average PMA RLU−average Veh RLU). The viability of cells was assessed using PrestoBlue reagent (Thermo Fisher Scientific). Briefly, PrestoBlue reagent (2.5 μl) was added to the remaining cells and incubated for 30 minutes at room temperature, followed by fluorescence readout at (Ex 560 nm/Em 590 nm) which was normalized to fluorescence data of the Veh wells within the plate to obtain “% viability” calculated as 100×(compound fluorescence/average Veh fluorescence).
CD63 Tluc-CD9 EmGFP THP-1 reporter cell assay. CD63 Tluc CD9 EmGFP THP-1 reporter cell (designated as CD63 Tluc reporter cells) were incubated with 10 μM test compounds, ION (1 μM), or 0.5% DMSO (negative control) in the RPMI 1640 supplemented with exosome-depleted FBS at 5×10^4 cells in 200 μL/well for a 96-well plate for 48 hours at 37° C. Subsequently, the plate was centrifuged, the supernatant was transferred, and chemiluminescence was measured by TurboLuc™ Luciferase One-Step Glow Assay Kit. The response that measures activation and subsequent release of EVs was calculated using the following formula; % response=100×(compound RLU−average Veh RLU)/(average PMA RLU−average Veh RLU).

mBMDCs [2] = assay: RNA sequencing analysis of mBMDCs; format: cell-based, mouse; conditions: 5 μM
Procedure: FIGS. 2A-2C. RNA sequencing analysis of mBMDC treated with compound #634, (A) mBMDCs were treated with compound #634 (5 μM) or Veh (0.1% DMSO) or in triplicate for 5 hours. RNA was isolated, and RNA-seq analysis was performed by UC San Diego IGM Genomic Center. Data were analyzed by UC San Diego Moore Cancer Center Biostatistics and Bioinformatics Shared Resources. […] (B) Kyoto Encyclopedia of Genes and Genomes (KEGG) pathway analysis. Normalized enrichment scores (NES) of the top 10 positively and negatively enriched genes sets (FDR≤0.05 and fold change >2).
mBMDCs were treated with compound 634 (5 μM) or Veh (0.1% DMSO) in triplicate for 5 hours. RNA was isolated, and RNA-seq analysis was performed. […] Data were analyzed by UC San Diego Moore Cancer Center Biostatistics and Bioinformatics Shared Resources.
RNA-seq and Data Analysis. mBMDCs (1.5×10^6 cells, 10^6 cells/mL×1.5 mL) were treated with Veh (0.1% DMSO), 634 (5 μM) for 5 hours, and then the total RNA was isolated using Quick-RNA™ Miniprep Kit (Zymo Research). Each group has triplicates. RNA-seq was performed by the sequencing core at the UC San Diego institute for Genomic Medicine Genomics Center. Briefly, paired-ended sequencing was performed on the Illumina NovaSeq 6000. Reads were aligned to the mouse reference genome (mm10) using STAR (ver. 2.5.1), and mRNA expression levels were calculated per gene using RSEM (ver. 1.3.0). Genes were filtered if more than 24 out of 27 of the samples (including compound 634, there were a total of 8 testing compounds and DMSO in triplicated samples) had counts <10. Raw counts were then quantile normalized and used as expression values in the subsequent analysis. Also, if mouse gene IDs corresponded with multiple human genes, the genes with highest variance in expression values were kept (Miller et al., 2011). A total of 11759 genes remained. Limma (liner models for microarray, using Rlimma package) trend tests were used for differential analysis based on log 2 expression values. The Benjamini-Hochberg procedure was applied to control the false discovery rate (FDR). […] RNA-seq data have been deposited in ArrayExpress, https://www.ebi.ac.uk/arrayexpress/(accession no. E-MTAB-12377) (Hayashi, 2022).

mBMDCs [3] = assay: Cell viability / cytotoxicity in mBMDCs (MTT); format: cell-based, mouse; conditions: 10 μM
Procedure: FIGS. 30A-30B. […] After 48 hours incubation, cell viability was determined by MTT assay.
mBMDCs (10^5 cells/200 μL/well) were treated with 10 and 5 μM of a test compound in 96-well plates overnight. After 18 hours of drug treatment, MTT (0.5 mg/ml) was added to each well. The cells were lysed after 6-8 hours incubation, and absorbance values at 570 and 650 nm were measured. PrestoBlue reagent (#A13261, Thermo Fisher Scientific) was used for cell viability assay in CD63 HTS as described earlier.
Cell viability assay. mBMDCs (2×10^6 cells/200 μL/well in RPMI1640 supplemented with dialyzed 10% FBS, or 1.5×10^6 cells/200 μL/well in RPMI1640 supplemented with 10% exosome depleted FBS) were treated with 10 μM of each test compound in 96-well plates. After 46-48 hours of compound treatment, MTT (0.5 mg/mL) was added to each well. The cells were lysed after overnight incubation, and absorbance values at 570 and 650 nm were measured.

[4] = 5 hours, FDR≤0.05 and fold change >2

`CCOC(=O)c1c(NS(=O)(=O)c2cccc3c2N=S=N3)sc(C)c1C` [#634, ethyl 2-(benzo[c][1,2,5]thiadiazole-4-sulfonamido)-4,5-dimethylthiophene-3-carboxylate] was tested, and the “exosome (EV) release in CD63 reporter THP-1 cells” value [1] was “enhanced exosome release”.
With `CCOC(=O)c1c(NS(=O)(=O)c2cccc3nsnc23)sc(C)c1C` [compound 634, Ethyl 2-(benzo[c][1,2,5]thiadiazole-4-sulfonamido)-4,5-dimethylthiophene-3-carboxylate] the “FC Cdhr1” value (mBMDCs [2]; 5 hours vs Veh, down-regulated) was 0.40, the “FC Hrh1” value (mBMDCs [2]; 5 hours vs Veh, down-regulated) was 0.46 and the “FC Cdh1” value (mBMDCs [2]; 5 hours vs Veh, up-regulated) was 2.61. The “FC Htr7” value (mBMDCs [2]; 5 hours vs Veh, up-regulated) was 2.38, the “FC Oit3” value (mBMDCs [2]; 5 hours vs Veh, up-regulated) was 2.02 and the “FC Ppm1e” value (mBMDCs [2]; 5 hours vs Veh, up-regulated) was 2.77. The “FC Sla2” value (mBMDCs [2]; 5 hours vs Veh, up-regulated) was 2.04, the down-regulated genes (mBMDCs [2]; [4]) was 17 genes and the “genes with modulated expression compared to Veh” value (mBMDCs [2]; [4]) was 103 genes. For the same compound, the up-regulated genes (mBMDCs [2]; [4]) was 86 genes and the “toxicity to mBMDC” value (mBMDCs [3]) was “non-toxic”.
